Values quoted from earlier work in patent publication US20020035037A1, “CONTROL OF SCLEROTIUM CEPIVORUM IN ALLIUM PLANTS” (priority 1991, published 2002).

System: Sclerotium cepivorum
Details: iprodione 125 g/kg seed as seed treatment; procymidon 4-6 kg/ha as soil treatment; particularly with heavy infestation

| Structure (SMILES) | effectiveness of control of Sclerotium cepivorum |
| --- | --- |
| CC(C)NC(=O)N1CC(=O)N(c2cc(Cl)cc(Cl)c2)C1=O [iprodione] | not effective |
| CC12CC1(C)C(=O)N(c1cc(Cl)cc(Cl)c1)C2=O (centres unmarked) [procymidon] | not effective |
